Test [1] deals with T1, Vascular endothelial growth factor receptor 2 (Homo sapiens, UniProt P35968). As to the kind of experiment: Binding affinity to VEGFR2 in isolated human glioblastoma at 0.18 nM after 60 mins by phosphor image autoradiographic analysis in presence of (R)-PAQ. The conditions noted are these: tested as the 18F-labelled form.
Test [2] deals with T1, Vascular endothelial growth factor receptor 2. The experiment in a line: Binding affinity to VEGFR2 in isolated human glioblastoma at 0.18 nM after 60 mins by phosphor image autoradiographic analysis in presence of ZM-323881. The conditions noted are these: tested as the 18F-labelled form.
Test [3] shares this target. As to the kind of experiment: Binding affinity to VEGFR2 in isolated human glioblastoma at 0.18 nM after 60 mins by phosphor image autoradiographic analysis. The following applies: tested as the 18F-labelled form.
The target is the same in test [4]. The experiment in a line: Inhibition of human VEGFR2 by fluorescence-based electrophoretic mobility-shift assay.

The source made the active and inactive calls. No cut-off for these calls is given here.

For 1 molecule, Activity and IC50 results are on record in ChEMBL document CHEMBL2057176, “Synthesis and in vitro evaluation of [18F](R)-FEPAQ: a potential PET ligand for VEGFR2” (Bioorg Med Chem Lett, 2012).

The term IC50 denotes the concentration at which inhibition is half-maximal.

T1 sequence (P35968 whole entry): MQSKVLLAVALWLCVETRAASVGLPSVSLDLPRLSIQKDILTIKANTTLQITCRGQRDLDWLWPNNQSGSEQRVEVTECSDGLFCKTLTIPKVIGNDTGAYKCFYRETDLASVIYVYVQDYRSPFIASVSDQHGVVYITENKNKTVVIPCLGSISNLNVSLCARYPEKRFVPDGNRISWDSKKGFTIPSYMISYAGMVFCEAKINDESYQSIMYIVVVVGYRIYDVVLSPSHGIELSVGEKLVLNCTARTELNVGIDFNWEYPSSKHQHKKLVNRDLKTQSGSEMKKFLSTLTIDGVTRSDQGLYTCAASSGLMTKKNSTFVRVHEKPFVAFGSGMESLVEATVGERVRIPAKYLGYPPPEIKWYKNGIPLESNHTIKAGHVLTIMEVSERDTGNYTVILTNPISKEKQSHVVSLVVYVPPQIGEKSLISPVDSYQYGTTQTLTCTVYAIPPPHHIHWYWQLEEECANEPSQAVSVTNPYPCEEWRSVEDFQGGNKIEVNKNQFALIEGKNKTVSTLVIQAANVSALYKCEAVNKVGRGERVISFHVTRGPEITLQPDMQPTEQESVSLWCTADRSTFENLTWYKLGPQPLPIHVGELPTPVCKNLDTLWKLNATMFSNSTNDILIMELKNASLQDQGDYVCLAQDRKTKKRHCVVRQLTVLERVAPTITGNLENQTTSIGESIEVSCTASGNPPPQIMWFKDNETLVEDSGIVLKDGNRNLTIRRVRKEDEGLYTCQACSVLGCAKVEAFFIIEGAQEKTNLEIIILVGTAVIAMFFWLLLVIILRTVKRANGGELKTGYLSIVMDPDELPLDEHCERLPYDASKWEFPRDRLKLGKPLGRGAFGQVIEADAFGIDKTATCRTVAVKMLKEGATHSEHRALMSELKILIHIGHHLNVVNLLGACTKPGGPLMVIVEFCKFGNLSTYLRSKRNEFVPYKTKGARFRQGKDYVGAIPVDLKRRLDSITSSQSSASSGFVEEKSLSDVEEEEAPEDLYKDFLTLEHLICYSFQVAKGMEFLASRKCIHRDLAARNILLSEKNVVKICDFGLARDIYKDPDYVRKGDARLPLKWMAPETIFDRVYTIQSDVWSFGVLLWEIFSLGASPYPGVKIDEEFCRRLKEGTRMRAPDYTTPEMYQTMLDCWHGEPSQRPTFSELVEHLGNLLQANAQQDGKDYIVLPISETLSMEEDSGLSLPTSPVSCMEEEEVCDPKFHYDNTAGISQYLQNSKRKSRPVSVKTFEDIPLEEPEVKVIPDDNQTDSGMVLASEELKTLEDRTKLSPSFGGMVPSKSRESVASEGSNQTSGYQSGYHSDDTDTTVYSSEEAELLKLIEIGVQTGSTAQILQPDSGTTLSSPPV

`COc1cc2c(Nc3ccc(Br)cc3F)ncnc2cc1OC[C@@H]1CCCN(CCF)C1`: the result in test [1] and in test [2] was inactive. Besides, in test [3], the result was Active. Besides, in test [4], the IC50 was 40 nM.
